This is an account of results in patent publication US6610687B1, “Benzofuranylsulfonates” (Bayer Aktiengesellschaft, priority 1999, dated 2003).

The test system of test [1] is human PMN (neutrophils). As to the kind of experiment: Inhibition of FMLP-stimulated production of superoxide radical anions. The test is classed as cell-based. Conditions: Neutrophil, read-out: IC50 O2^−. The method, then:
1. Preparation of Human PMN
Blood was taken from healthy subjects by venous puncture and neutrophils were purified by dextran sedimentation and resuspended in the buffered medium.
2. Inhibition of FMLP-stimulated Production of Superoxide Racidal Anions.
Neutrophils (2.5×10^5 ml^−1) were mixed with cytochrome C (1.2 mg/ml) in the wells of a microtitre plate. Compounds according to the invention were added in dimethyl sulphoxide (DMSO). Compound concentration ranged from 2.5 nM to 10 μM, the DMSO concentration was 0.1% v/v in all wells. After addition of cytochalasin b (5 μg×ml^−1) the plate was incubated for 5 min at 37° C. Neutrophils were then stimulated by addition of 4×10^−8 M FMLP and superoxide generation measured as superoxide dismutase inhibitable reduction of cytochrome C by monitoring the OD550 in a microtitre plate spectrophotometer, e.g. a thermomax microtitre plate spectrophotometer. Initial rates were calculated using a kinetic calculation programme such as a softmax programme. Blank wells contained 200 units of superoxide dismutase.
The inhibition of superoxide production was calculated as follows: [formula]
Rx=Rate of the well containing the compound according to the invention.
Ro=Rate in the control well.
Rb=Rate in the superoxide dismutase containing blank well.

Test [2] has as its target PMN phosphodiesterase (PDE IV). Briefly: Assay of PMN phosphodiesterase. The format is biochemical. Conditions: particulate fraction from human PMN, treated with sodium vanadate/glutathione. The protocol: 4. Assay of PMN Phosphodiesterase
This was performed as a particulate fraction from human PMN essentially as described by Souness and Scott (Biochem. J. 291, 389-395, 1993). Particulate fractions were treated with sodium vanadate/glutathione as described by the authors to express the descrete stereospecific site on the phosphodiesterase enzyme.

In the case of `NC(=O)Nc1c(C(=O)c2ccc(Cl)cc2Cl)oc2cc(OS(=O)(=O)c3cccc4cccnc34)ccc12` [Example 49], the IC50 in test [1] and in test [2] was 1 nM in each case.
As to `Cc1nn(C)c(Cl)c1S(=O)(=O)Oc1ccc2c(NC(N)=O)c(C(=O)c3ccc(F)cc3F)oc2c1` [Example 24], the values for the IC50 in test [1] and in test [2] were 60 nM and 130 nM, respectively.
In the same order, the values of `CN(C)S(=O)(=O)Oc1ccc2c(NC(N)=O)c(C(=O)c3cc(Cl)ccc3Cl)oc2c1` [Example 46] are 35 nM and 6 nM.
Consider `NC(=O)Nc1c(C(=O)c2ccc(Cl)cc2Cl)oc2cc(OS(=O)(=O)Cc3ccc(Cl)nc3)ccc12` [Example 47], for which the IC50 came out at 20 nM in test [1] and 33 nM in test [2].
On to `Cc1ccc(C(=O)c2oc3cc(OS(=O)(=O)c4cn(C)cn4)ccc3c2NC(N)=O)c(C)c1` [Example 36], for which the half-maximal inhibitory concentration (IC50) in test [1] stood at 7 nM; in test [2] it was 1 nM.
Turning to `NC(=O)Nc1c(C(=O)c2ccc(Cl)cc2Cl)oc2cc(OS(=O)(=O)c3ccc(-c4ccccn4)s3)ccc12` [Example 21], the results for the IC50 in test [1] and in test [2] were 20 nM and 40 nM, respectively.
In the same order, the values of `CC(=O)Nc1ccc(S(=O)(=O)Oc2ccc3c(NC(N)=O)c(C(=O)c4ccc(Cl)cc4)oc3c2)cc1` [Example 13] are 65 nM and 21 nM.

What is called IC50 is the concentration that inhibits the measured activity by half.
